Series [1] deals with HEK-293 cells co-expressing GIRK1 and GIRK2. Conditions: dye loading 1 h, 1 mM Tl^+ stimulus; for on/off (Tl^+ flux assay), maximum fold increase in fluorescence after Tl^+ addition: 10 μM ML297, 2 mM Allura Red AC, n = 6.
Experimental: HEK-293 cells co-expressing GIRK1 and GIRK2 were cultured to 80% confluence in a T75 flask (Techno Plastic Products, Trasadingen, CH) at 37° C. and 5% CO2 in medium consisting of Minimal Essential Medium (Cellgro, Manassas, Va.) containing 1× Glutagro (Cellgro, Manassas, Va.) and 10% (v/v) heat-inactivated fetal bovine serum (Life Technologies, Carlsbad, Calif.). The cells were dislodged by treatment with TrypLE (Gibco/Life Technologies, Carlsbad, Calif.), diluted in medium, and plated on clear bottomed, black-walled, amine coated 384 well plates (BD Biosciences, Billerica, Mass.) at a density ˜20,000 cells per well. The plated cells were incubated overnight at 37° C. and 5% CO2 and used for the assay the next day.
Dye loading solutions of Thallos were prepared by dissolving a 25 μg aliquot in 30 μL of 6.7% Pluoronic F-127 (w/v) in DMSO and diluting the resulting solution 1:1000 into assay buffer. Culture medium was removed and replaced with 20 μL of dye loading buffer and incubated in the dark at room temperature for 1 h.
Assay—Assays were conducted on a WaveFront Biosciences Panoptic 1 or 2 (WaveFront Biosciences, Franklin, Tenn.) as indicated. Dye loading solutions were removed and replaced with assay buffer immediately before imaging unless otherwise noted. 10 s following commencement of plate imaging, 20 μL of compound at 2.5× concentration in assay buffer was added and incubated for 120 s at which point 10 μL of Tl^+ at 5× concentration in stimulus buffer (125 mM NaHCO3, 1.8 mM CaSO4, 1 mM MgSO4, 5 mM glucose, 10 mM HEPES, pH 7.4, and T12SO4), and images taken for the following 120 s.
1 mM of T12SO4 (final concentration) was used for stimulus. Assay and stimulus buffers were supplemented with 2 mM of Allura Red AC. […] On/off ratios were calculated by dividing the fluorescence intensity after saturation following Tl^+ addition by the fluorescence intensity immediately after compound addition (n=6).
Series [2] in a line: Determination of photochemical properties of saponified dyes. It counts as physicochemical. As to conditions: for λmax (absorption maximum) / ε (molar absorptivity) / λem (fluorescence emission maximum): after saponification, 150 mM KCl, 10 mM HEPES, 50 μM EDTA, pH = 7.22; for ε (molar absorptivity): at λmax. The method, then: Evaluation of the photochemical properties of the active Thallium sensing species was accomplished by saponifying 10 μL of each pro-dye stock solution by incubating with 90 μL of 0.1 M KOH for 20 min at 37° C. with the exception of 8b which was treated with 1% NH4OH for 1 h at 37° C. The saponified compounds were diluted into 150 mM KCl buffered with 10 mM HEPES, pH=7.22 with 50 μM of EDTA. All photochemical measurements were taken in this buffer. Absorbance and fluorescence emission spectra were recorded on a Molecular Devices Spectromax M5 using polystyrene cuvettes with path length=1 cm at 23° C. Molar absorptivities are reported for λmax. The emission wavelengths monitored for recording excitation spectra, the excitation wavelengths used for recording emission spectra, and the corresponding emission cutoff filters used are listed in Table 2 below, and representative excitation and emission spectra are shown in FIG. 7.
To determine the in vitro photochemical properties of the active Tl^+ sensing species, 8a-m were treated with base to remove the acetoxymethyl esters and aryl acetate and then diluted into 10 mM HEPES buffered 150 mM KCl with 50 μM EDTA at pH=7.22.

Another series addresses T1, GIRK1 and GIRK2 (Homo sapiens, UniProt P48051+P48549).
T1 construct: expressed in transfected cells; host or cells: HEK-293
T1 sequence (P48549 1-501): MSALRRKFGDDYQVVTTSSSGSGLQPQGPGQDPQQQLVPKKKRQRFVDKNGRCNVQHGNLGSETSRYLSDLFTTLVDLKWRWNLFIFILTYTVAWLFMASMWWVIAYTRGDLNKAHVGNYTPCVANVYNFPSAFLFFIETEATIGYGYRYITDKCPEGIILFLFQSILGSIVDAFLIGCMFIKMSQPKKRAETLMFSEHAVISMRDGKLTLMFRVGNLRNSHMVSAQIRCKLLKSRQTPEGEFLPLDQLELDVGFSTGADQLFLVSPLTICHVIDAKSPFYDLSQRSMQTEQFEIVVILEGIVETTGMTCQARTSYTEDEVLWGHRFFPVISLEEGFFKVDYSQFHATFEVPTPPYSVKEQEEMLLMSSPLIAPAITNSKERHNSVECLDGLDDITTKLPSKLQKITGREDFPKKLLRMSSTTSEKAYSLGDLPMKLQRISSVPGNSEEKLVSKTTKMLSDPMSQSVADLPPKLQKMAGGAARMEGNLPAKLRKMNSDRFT
T1 sequence (P48051 1-423): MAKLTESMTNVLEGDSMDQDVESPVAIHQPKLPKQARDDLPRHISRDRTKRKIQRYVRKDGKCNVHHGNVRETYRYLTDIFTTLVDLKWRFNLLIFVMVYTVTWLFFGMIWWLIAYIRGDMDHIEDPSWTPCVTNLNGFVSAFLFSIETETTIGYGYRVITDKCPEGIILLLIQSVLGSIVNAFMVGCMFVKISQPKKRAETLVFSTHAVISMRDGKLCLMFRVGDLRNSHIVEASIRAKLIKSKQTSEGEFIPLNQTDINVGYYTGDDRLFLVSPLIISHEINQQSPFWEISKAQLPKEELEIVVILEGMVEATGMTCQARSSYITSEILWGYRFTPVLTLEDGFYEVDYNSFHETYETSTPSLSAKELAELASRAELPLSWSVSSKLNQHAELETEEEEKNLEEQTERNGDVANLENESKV
Briefly: ML297 concentration response curves by Tl+ flux assay. It counts as cell-based. The text has this: ML297 concentration response curves—In general, all concentration-response data were collected on a WaveFront Biosciences Panoptic 2. Thallos treated cells were imaged using 482/35 nm excitation and 536/40 nm emission filters. 8c treated cells were imaged using 529/24 nm excitation and 565/24 nm emission filters (unless otherwise noted). FluxOR Red treated cells were imaged using 544/24 nm excitation and 593/40 nm emission filters (all filters purchased from Semrock, Rochester, N.Y.). FluxOR Red reagent was prepared according to the manufacturer's procedure. 5 μM of 8c was used for dye loading for all conditions.
FluxOR Red procedure with background suppressor. The manufacturer's procedure was followed with the exceptions that the dye loading solution was replaced with 20 μL of assay buffer, solutions of ML297 were prepared in assay buffer plus background suppressor, 20 μL of compound solution was added and 10 μL stimulus buffer (basal) was added according to the general assay protocol described above.
FluxOR Red procedure without background suppressor. The FluxOR Red manufacturer's procedure was followed except the background suppressor was replaced by H2O in all buffers.
Bicarbonate buffer with Allura Red AC. The assay and stimulus buffers described in the general Tl^+ flux procedure were used for dye loading, assay buffer with ML297, and stimulus buffer. All buffers were supplemented with 1 mM of Allura Red AC. The wash step to remove dye loading buffer was omitted.
Bicarbonate buffer without Allura Red AC. The general Tl^+ flux procedure was followed without any solutions supplemented with Allura Red AC.
The fluorescence intensity values of the first 6 time points for each well were averaged and the fluorescence intensity for all time points in the well was divided by this value to provide F/Fo for each time point. The average F/Fo of the vehicle control was then subtracted from each curve and the normalized, control subtracted fluorescence intensity value was sampled at a time point several seconds after Tl^+ addition. […] Fold increases in fluorescence reported in the main paper were calculated by averaging F/Fo between 100 and 110 s after Tl^+ addition. Data presented in FIG. 3 and FIG. 6 were obtained using 8c with the FluxOR Red kit as described above under the FluxOR Red with background suppressor procedure.
The performance of 8c was evaluated in a Tl^+ flux assay to generate a concentration response curve (CRC) of the GIRK activator ML297. […] Normalized, control subtracted fluorescence intensity values were sampled along the curves following Tl^+ addition at each concentration and a CRC was fit using GraphPad Prism (FIG. 3B).

Regarding `COc1cc(NC(=O)c2ccc3c(c2)C(=O)OC32c3ccc(NC(C)=O)cc3Oc3cc(OC(C)=O)ccc32)ccc1N(CC(=O)OCOC(C)=O)CC(=O)OCOC(C)=O` (centres unmarked) [Compound 8b, bis(acetoxymethyl) 2,2′-((4-(3′-acetamido-6′-acetoxy-3-oxo-3H-spiro[isobenzofuran-1,9′-xanthen]-5-ylcarboxamido)-2-methoxyphenyl)azanediyl)diacetate], in series [1], the “fluorescence and response to Tl^+ in cells (in words)” value is given as “Fluorescence was not detected”. Moreover, in series [2], the “λmax (absorption maximum)” value came to 463 nm and the “ε (molar absorptivity)” value amounted to 24000 M⁻¹ cm⁻¹. Further, the “fluorescence of saponified dye (in words)” value in series [2] (reason why spectra were not recorded) is given as “very weak fluorescence”.
With `CCN(CC)c1ccc2c(c1)Oc1cc(OC(C)=O)ccc1C21OC(=O)c2cc(C(=O)Nc3ccc(N(CC(=O)OCOC(C)=O)CC(=O)OCOC(C)=O)c(OC)c3)ccc21` (centres unmarked) [Compound 8d, bis(acetoxymethyl) 2,2′-((4-(3′-acetoxy-6′-(diethylamino)-3-oxo-3H-spiro[isobenzofuran-1,9′-xanthen]-5-ylcarboxamido)-2-methoxyphenyl)azanediyl)diacetate], in series [1], the “on/off (Tl^+ flux assay), maximum fold increase in fluorescence after Tl^+ addition” value stood at 3.28 ± 0.04 fold. In series [2], the “λem (fluorescence emission maximum)” value is on record as 551 nm, the “λmax (absorption maximum)” value was determined as 525 nm and the “ε (molar absorptivity)” value turned out to be 55000 M⁻¹ cm⁻¹.
The matching figures for `CCCN(CCC)c1ccc2c(c1)Oc1cc(OC(C)=O)ccc1C21OC(=O)c2cc(C(=O)Nc3ccc(N(CC(=O)OCOC(C)=O)CC(=O)OCOC(C)=O)c(OC)c3)ccc21` (centres unmarked) [Compound 8e, bis(acetoxymethyl) 2,2′-((4-(3′-acetoxy-6′-(dipropylamino)-3-oxo-3H-spiro[isobenzofuran-1,9′-xanthen]-5-ylcarboxamido)-2-methoxyphenyl)azanediyl)diacetate]: 2.94 ± 0.08 fold, 553 nm, 527 nm and 66000 M⁻¹ cm⁻¹.
In the same order, the values of `CCCCN(CCCC)c1ccc2c(c1)Oc1cc(OC(C)=O)ccc1C21OC(=O)c2cc(C(=O)Nc3ccc(N(CC(=O)OCOC(C)=O)CC(=O)OCOC(C)=O)c(OC)c3)ccc21` (centres unmarked) [Compound 8f, bis(acetoxymethyl) 2,2′-((4-(3′-acetoxy-6′-(dibutylamino)-3-oxo-3H-spiro[isobenzofuran-1,9′-xanthen]-5-ylcarboxamido)-2-methoxyphenyl)azanediyl)diacetate] are 1.52 ± 0.01 fold, 556 nm, 528 nm and 58000 M⁻¹ cm⁻¹.
The matching figures for `COc1cc(NC(=O)c2ccc3c(c2)C(=O)OC32c3ccc(NC4CCCCC4)cc3Oc3cc(OC(C)=O)ccc32)ccc1N(CC(=O)OCOC(C)=O)CC(=O)OCOC(C)=O` (centres unmarked) [Compound 8g, bis(acetoxymethyl) 2,2′-((4-(3′-acetoxy-6′-(cyclohexylamino)-3-oxo-3H-spiro[isobenzofuran-1,9′-xanthen]-5-ylcarboxamido)-2-methoxyphenyl)azanediyl)diacetate]: 4.26 ± 0.07 fold, 535 nm, 514 nm and 57000 M⁻¹ cm⁻¹.
On to `CCCCNc1ccc2c(c1)Oc1cc(OC(C)=O)ccc1C21OC(=O)c2cc(C(=O)Nc3ccc(N(CC(=O)OCOC(C)=O)CC(=O)OCOC(C)=O)c(OC)c3)ccc21` (centres unmarked) [Compound 8h, bis(acetoxymethyl) 2,2′-((4-(3′-acetoxy-6′-(butylamino)-3-oxo-3H-spiro[isobenzofuran-1,9′-xanthen]-5-ylcarboxamido)-2-methoxyphenyl)azanediyl)diacetate], for which the “on/off (Tl^+ flux assay), maximum fold increase in fluorescence after Tl^+ addition” value in series [1] is recorded as 3.50 ± 0.07 fold. In series [2], the “λem (fluorescence emission maximum)” value turned out to be 533 nm, the “λmax (absorption maximum)” value came out at 511 nm and the “ε (molar absorptivity)” value is 48000 M⁻¹ cm⁻¹.
Consider `Cc1cc(NC(=O)Nc2ccc(F)c(F)c2)n(-c2ccccc2)n1` [ML297], for which the EC50 at GIRK1 and GIRK2 (dye 8c (5 μM, 1 h), FluxOR Red kit with background suppressor, 1 mM Tl^+) was 257 ± 3.7 nM; on GIRK1 and GIRK2 (dye 8c, bicarbonate stimulus buffer, 500 μM Tl^+, no-wash, 1 mM Allura Red AC), 204 ± 5.2 nM; on GIRK1 and GIRK2 (dye Thallos, bicarbonate stimulus buffer, 500 μM Tl^+, no-wash, 1 mM Allura Red AC), 219 ± 23 nM; on GIRK1 and GIRK2 (dye Thallos, same procedure (FluxOR Red kit with background suppressor)), 272 ± 23 nM. For the same compound, the “pEC50 and standard error of ML297 activation” value (from here on “pEC50 and standard error”) on GIRK1 and GIRK2 (dye 8c (544x/593m filters), FluxOR Red Kit, Background Suppressor +) is listed as 6.63 ± 0.01; at GIRK1 and GIRK2 (dye 8c (544x/593m filters), FluxOR Red Kit, Background Suppressor −) it was 6.66 ± 0.04; on GIRK1 and GIRK2 (dye 8c, FluxOR Red Kit, Background Suppressor +) it was 6.59 ± 0.01; on GIRK1 and GIRK2 (dye 8c, FluxOR Red Kit, Background Suppressor −), 6.61 ± 0.02; on GIRK1 and GIRK2 (dye 8c, HCO3^− Stimulus Buffer, 1 mM Allura Red AC +) it was 6.69 ± 0.01; at GIRK1 and GIRK2 (dye 8c, HCO3^− Stimulus Buffer, 1 mM Allura Red AC −), 6.59 ± 0.03. Moreover, the “pEC50 and standard error” value is on record as 6.64 ± 0.01 on GIRK1 and GIRK2 (dye FluxOR Red, FluxOR Red Kit, Background Suppressor +); 6.41 ± 0.03 on GIRK1 and GIRK2 (dye FluxOR Red, FluxOR Red Kit, Background Suppressor −); 7.02 ± 0.1 on GIRK1 and GIRK2 (dye FluxOR Red, HCO3^− Stimulus Buffer, 1 mM Allura Red AC −); 6.57 ± 0.04 at GIRK1 and GIRK2 (dye Thallos, FluxOR Red Kit, Background Suppressor +); 6.65 ± 0.02 on GIRK1 and GIRK2 (dye Thallos, FluxOR Red Kit, Background Suppressor −); 6.66 ± 0.01 at GIRK1 and GIRK2 (dye Thallos, HCO3^− Stimulus Buffer, 1 mM Allura Red AC +). Further, the “pEC50 and standard error” value on GIRK1 and GIRK2 (dye Thallos, HCO3^− Stimulus Buffer, 1 mM Allura Red AC −) is 6.61 ± 0.01.

Source of the values: patent US11519859B2, “Rhodol-based thallium sensors for high-throughput screening of potassium channels” (priority 2018, dated 2022).
